Assay type in all cases: cell-based
Data set [1] concerns the target T1, Peroxisome proliferator-activated receptor alpha (Homo sapiens) (UniProt Q07869).
T1 sequence (whole entry): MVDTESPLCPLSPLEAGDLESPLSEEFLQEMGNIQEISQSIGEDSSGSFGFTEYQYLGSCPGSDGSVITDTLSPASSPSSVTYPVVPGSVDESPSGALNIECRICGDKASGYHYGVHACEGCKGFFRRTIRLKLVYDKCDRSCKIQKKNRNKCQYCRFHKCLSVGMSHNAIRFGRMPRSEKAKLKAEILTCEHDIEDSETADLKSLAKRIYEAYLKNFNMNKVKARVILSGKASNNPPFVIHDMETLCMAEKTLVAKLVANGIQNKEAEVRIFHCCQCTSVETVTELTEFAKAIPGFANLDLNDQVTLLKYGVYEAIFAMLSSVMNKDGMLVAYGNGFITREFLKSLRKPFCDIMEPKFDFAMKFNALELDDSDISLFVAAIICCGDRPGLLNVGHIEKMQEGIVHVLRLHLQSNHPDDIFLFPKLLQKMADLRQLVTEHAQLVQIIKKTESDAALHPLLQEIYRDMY
As to the kind of experiment: Agonist activity at Gal4-tagged human PPARalpha expressed in HEK293 cells at 3 to 30 uM incubated for 16 to 20 hrs by luciferase and beta-galactosidase activity based reporter gene assay.

Data set [2] addresses T2, Peroxisome proliferator-activated receptor gamma (Homo sapiens) (UniProt P37231).
T2 sequence (whole entry): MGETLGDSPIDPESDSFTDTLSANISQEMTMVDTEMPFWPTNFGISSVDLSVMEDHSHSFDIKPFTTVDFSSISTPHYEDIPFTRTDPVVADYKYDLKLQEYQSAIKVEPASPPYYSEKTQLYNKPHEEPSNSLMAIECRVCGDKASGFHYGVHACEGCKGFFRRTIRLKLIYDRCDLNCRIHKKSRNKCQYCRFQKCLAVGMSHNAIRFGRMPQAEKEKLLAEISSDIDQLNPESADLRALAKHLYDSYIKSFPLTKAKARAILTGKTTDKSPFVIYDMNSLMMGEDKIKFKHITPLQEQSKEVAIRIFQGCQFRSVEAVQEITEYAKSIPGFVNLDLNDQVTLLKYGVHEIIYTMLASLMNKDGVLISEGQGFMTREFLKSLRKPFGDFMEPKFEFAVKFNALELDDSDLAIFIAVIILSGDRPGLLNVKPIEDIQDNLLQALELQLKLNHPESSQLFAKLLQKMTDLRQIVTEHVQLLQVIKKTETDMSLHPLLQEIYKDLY
Put plainly: Agonist activity at Gal4-tagged human PPARgamma expressed in HEK293 cells at 3 to 30 uM incubated for 16 to 20 hrs by luciferase and beta-galactosidase activity based reporter gene assay.

Data set [3] concerns the target T3, Peroxisome proliferator-activated receptor delta (Homo sapiens) (UniProt Q03181).
T3 sequence (whole entry): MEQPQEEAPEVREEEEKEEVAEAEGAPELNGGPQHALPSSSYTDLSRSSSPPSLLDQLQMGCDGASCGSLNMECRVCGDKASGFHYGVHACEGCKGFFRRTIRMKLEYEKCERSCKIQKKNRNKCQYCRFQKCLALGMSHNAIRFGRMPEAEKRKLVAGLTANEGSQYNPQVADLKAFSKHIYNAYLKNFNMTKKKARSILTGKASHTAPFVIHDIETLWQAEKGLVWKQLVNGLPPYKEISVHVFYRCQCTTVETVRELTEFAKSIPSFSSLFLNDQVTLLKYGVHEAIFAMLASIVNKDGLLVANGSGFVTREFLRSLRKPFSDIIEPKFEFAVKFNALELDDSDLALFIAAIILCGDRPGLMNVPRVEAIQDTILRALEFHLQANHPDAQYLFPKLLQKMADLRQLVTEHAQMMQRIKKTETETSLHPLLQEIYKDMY
As to the kind of experiment: Agonist activity at Gal4-tagged human PPARdelta expressed in HEK293 cells at 3 to 30 uM incubated for 16 to 20 hrs by luciferase and beta-galactosidase activity based reporter gene assay.

The test system of the next data set is HEK293. As to the kind of experiment: Toxicity against HEK293 cells assessed as reduction in cell viability at 30 uM. The following applies: human, hek293, 30 µM.

The source of these data is ChEMBL document CHEMBL3600336, “Design and synthesis of silicon-containing fatty acid amide derivatives as novel peroxisome proliferator-activated receptor (PPAR) agonists” (Bioorg Med Chem Lett, 2015).

The structures appear in SMILES notation. Active and inactive are the calls of the source. No cut-off for these calls is given here.

For `CCCCCCCC[Si](CC)(CC)CCCCCCC(=O)NCCO`, the outcome in data set [1], in data set [2] and in data set [3] was inactive.
Consider `CCCCCCCC[Si](CC)(CC)CCCCCCCC(=O)NCCO`, for which the result in data set [1] and in data set [3] was Active. The outcome in data set [2] was inactive.
As to `CCCCCCC[Si](CC)(CC)CCCCCCCC(=O)NCCO`, the result in data set [1] and in data set [2] was inactive. The result in data set [3] was Active. For the same molecule, in the data set with HEK293, the Activity entry is given as “Toxic”.
Take `CCCCCCCCCCCCCCCCCC(=O)NCCO`: the outcome in data set [1] and in data set [2] was inactive.
As to `CCCCCCCC/C=C\CCCCCCCC(=O)NCCO`, in data set [1], the outcome was Active.
`CCCCCCCC[Si](C)(C)CCCCCCCC(=O)NCCO`: the outcome in data set [1] and in data set [3] was Active. For the same molecule, the result in data set [2] was inactive.
On to `CCCCCCCC[Si](CCC)(CCC)CCCCCCCC(=O)NCCO`, for which the result in data set [1] and in data set [3] was Active. Besides, the result in data set [2] was inactive.
Turning to `CCCCCCCC[Si](CCCC)(CCCC)CCCCCCCC(=O)NCCO`, the outcome in data set [1], in data set [2] and in data set [3] was inactive.
